Our source for the IC50 values is patent publication US20250215029A1 (Recludix Pharma, Inc., priority 2022, published 2025).

Experiment [1] deals with T1, Recombinant STAT6 protein (STAT6 (W123-T658)) (Homo sapiens, UniProt P42226).
T1 construct: Recombinant STAT6 protein (STAT6 (W123-T658))
T1 sequence (P42226 123-658): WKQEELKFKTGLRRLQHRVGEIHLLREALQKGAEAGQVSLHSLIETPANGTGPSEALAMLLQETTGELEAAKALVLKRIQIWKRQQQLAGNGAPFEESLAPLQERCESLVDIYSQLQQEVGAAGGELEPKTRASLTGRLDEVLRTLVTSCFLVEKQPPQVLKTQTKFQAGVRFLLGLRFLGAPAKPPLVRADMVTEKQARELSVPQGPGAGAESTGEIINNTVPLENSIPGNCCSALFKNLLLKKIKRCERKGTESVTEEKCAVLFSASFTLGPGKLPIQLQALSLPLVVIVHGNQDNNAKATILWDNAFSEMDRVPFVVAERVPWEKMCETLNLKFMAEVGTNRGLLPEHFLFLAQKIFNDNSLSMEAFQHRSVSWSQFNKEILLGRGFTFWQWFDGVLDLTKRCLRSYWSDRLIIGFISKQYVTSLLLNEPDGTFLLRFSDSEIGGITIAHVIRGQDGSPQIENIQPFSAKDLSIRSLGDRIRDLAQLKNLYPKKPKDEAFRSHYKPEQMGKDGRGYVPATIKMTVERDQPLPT
Briefly: STAT6 Fluorescence Polarization (FP) Assay. To be noted: 45-minute incubation. It counts as binding. The gist of the method: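 Competitive FP binding: recombinant STAT6 (W123-T658) at 250 nM, labeled phosphotyrosine peptide at 2 nM, compounds at 1% DMSO, 45 min at RT before reading. IC50 values were obtained from nonlinear regression of mP versus log concentration.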

The target in experiment [2] is T2, Recombinant STAT3 protein (STAT3 (G127-I722)) (Homo sapiens, UniProt P40763).
T2 construct: Recombinant STAT3 protein (STAT3 (G127-I722))
Briefly: STAT3 Fluorescence Polarization (FP) Assay. It counts as binding. The conditions noted are these: probe 5-FAM-GpYLPQTV-NH2 2 nM, 45-minute incubation. In outline:
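Read-out is fluorescence polarization (mP) after 45 min at room temperature, with IC50 fitted by nonlinear regression against log compound concentration. Mixture: 25 nM STAT3 (G127-I722), 2 nM 5-FAM-GpYLPQTV-NH2 phosphopeptide, 10 mM HEPES pH 7.4 buffer, 1% DMSO.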

The mark [3] stands for this setting: STAT6 (W123-T658) 250 nM, probe 5-FAM-Ap[…]-NH2 2 nM, read-out: STAT6 (FP assay IC50 class).
Where [4] appears, read: STAT3 (G127-I722) 25 nM, read-out: STAT3 (FP assay IC50 class).
[5] abbreviates: STAT6 250 nM, probe 5-FAM-Ap[…]-NH2 2 nM, read-out: STAT6 (FP assay IC50).
The mark [6] stands for this setting: STAT3 25 nM, read-out: STAT3 (FP assay IC50).

Read-outs that look alike come from different tables or passages of the source.

T2 sequence (P40763 127-722): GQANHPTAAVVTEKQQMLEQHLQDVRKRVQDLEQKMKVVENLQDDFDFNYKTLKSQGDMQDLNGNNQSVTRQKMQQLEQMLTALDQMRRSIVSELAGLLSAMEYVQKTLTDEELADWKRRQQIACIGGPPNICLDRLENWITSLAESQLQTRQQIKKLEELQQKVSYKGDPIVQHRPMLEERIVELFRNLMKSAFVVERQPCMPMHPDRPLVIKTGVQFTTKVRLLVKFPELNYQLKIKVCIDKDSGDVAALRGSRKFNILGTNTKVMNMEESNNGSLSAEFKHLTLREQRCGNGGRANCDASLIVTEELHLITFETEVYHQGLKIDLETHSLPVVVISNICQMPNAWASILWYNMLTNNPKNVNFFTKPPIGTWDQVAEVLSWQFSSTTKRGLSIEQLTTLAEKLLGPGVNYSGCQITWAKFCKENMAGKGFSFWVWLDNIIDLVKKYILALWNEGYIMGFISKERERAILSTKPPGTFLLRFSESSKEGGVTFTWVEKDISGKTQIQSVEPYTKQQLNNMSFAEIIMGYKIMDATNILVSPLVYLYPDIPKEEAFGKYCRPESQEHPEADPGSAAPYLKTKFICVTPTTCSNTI

The term IC50 denotes the point on the concentration scale where inhibition reaches its midpoint. On to `O=C(N[C@H]1CCC[C@H]2CC[C@@H](C(=O)N3CC(c4cnccc4N4CC(OC(F)F)C4)C3)N2C1=O)c1cc2cc([C@@H](F)P(=O)(O)O)ccc2s1` [Compound 852, ((S)-(2-(((3S,6S,9aS)-3-(3-(4-(3-(difluoromethoxy)azetidin-1-yl)pyridin-3-yl)azetidine-1-carbonyl)-5-oxooctahydro-1H-pyrrolo[1,2-a]azepin-6-yl)carbamoyl)benzo [b]thiophen-5-yl)fluoromethyl) phosphonic acid], for which the IC50 was 0.3 to 3 µM in experiment [1] (setting [3]) and less than 0.1 µM in experiment [2] (setting [4]).

With `Cn1c(C2CN(C(=O)[C@@H]3CC[C@@H]4CCCC[C@H](NC(=O)c5cc6cc(C(F)(F)P(=O)(O)O)ccc6s5)C(=O)N43)C2)nc2ccccc21` [Compound 38, (difluoro(2-(((3S,6S,10aS)-3-(3-(1-methyl-1H-benzo[d]imidazol-2-yl)azetidine-1-carbonyl)-5-oxodecahydropyrrolo [1,2-a]azocin-6-yl)carbamoyl)benzo[b]thiophen-5-yl)methyl) phosphonic acid], the figures for the IC50 in experiment [1] (setting [5]) and in experiment [2] (setting [6]) were 0.3 to 3 µM and less than 0.1 µM, respectively.

Regarding `C[C@H]1C[C@H]2CC[C@@H](C(=O)N3CC(c4cncnc4N4CCC4)C3)N2C(=O)[C@@H](NC(=O)c2cc3cc([C@@H](F)P(=O)(O)O)ccc3s2)C1` (single isomer, unassigned) [Compound 677], the IC50 in experiment [1] (setting [3]) is 3 to 30 µM; in experiment [2] (setting [4]) it was less than 0.1 µM.

With `CCC[C@@H]1CC[C@H](NC(=O)c2cc3cc(C(F)P(=O)(O)O)ccc3s2)C(=O)N2[C@H](CC[C@H]2C(=O)N2CC(c3cnccc3OC)C2)C1` (stereo partly drawn) [Compound 241, (fluoro(2-(((3S,6S,9R,10aR)-3-(3-(4-methoxypyridin-3-yl)azetidine-1-carbonyl)-5-oxo-9-propyldecahydropyrrolo[1,2-a]azocin-6-yl)carbamoyl)benzo[b]thiophen-5-yl)methyl)phosphonic acid], the values for the IC50 in experiment [1] (setting [3]) and in experiment [2] (setting [4]) were 3 to 30 µM and less than 0.1 µM, respectively.

Turning to `O=C(N[C@H]1CCCC[C@H]2CC[C@@H](C(=O)N3CC[C@@H](c4ccccc4)C3)N2C1=O)c1cc2cc(C(F)(F)P(=O)(O)O)ccc2s1` [Compound 82, (difluoro(2-(((3S,6S,10aS)-5-oxo-3-((S)-3-phenylpyrrolidine-1-carbonyl)decahydropyrrolo [1,2-a]azocin-6-yl)carbamoyl)benzo[b]thiophen-5-yl)methyl) phosphonic acid], the half-inhibitory concentration (IC50) in experiment [1] (setting [5]) was not above 0.3 µM; in experiment [2] (setting [6]), 0.1 to 1 µM.

As to `O=C(N[C@H]1CCC[C@H]2CC[C@@H](C(=O)N3CC(c4cnccc4O)C3)N2C1=O)c1cc2cc(CP(=O)(O)O)ccc2s1` [Compound 539, ((2-(((3S,6S,9aS)-3-(3-(4-hydroxypyridin-3-yl)azetidine-1-carbonyl)-5-oxooctahydro-1H-pyrrolo[1,2-a]azepin-6-yl)carbamoyl)benzo[b]thiophen-5-yl)methyl)phosphonic acid], the IC50 in experiment [1] (setting [3]) was 3 to 30 µM; in experiment [2] (setting [4]), less than 0.1 µM.

Turning to `CC(=O)N1C[C@H](NC(=O)[C@@H]2CC[C@@H]3CCC[C@H](NC(=O)c4cc5cc(CP(=O)(O)O)ccc5s4)C(=O)N32)[C@@H](F)C1` [Compound 219, ((2-(((3S,6S,9aS)-3-(((3S,4S)-1-acetyl-4-fluoropyrrolidin-3-yl)carbamoyl)-5-oxooctahydro-1H-pyrrolo[1,2-a]azepin-6-yl)carbamoyl)benzo[b]thiophen-5-yl)methyl)phosphonic acid], the concentration for half-maximal inhibition (IC50) was in the range of 3 to 30 µM in experiment [1] (setting [3]) and 1 to 10 µM in experiment [2] (setting [4]).

Regarding `CN(C)c1ncncc1C1CN(C(=O)[C@@H]2CC[C@@H]3CCC[C@H](NC(=O)c4cc5cc(C(F)P(=O)(O)O)ccc5s4)C(=O)N32)C1` (stereo partly drawn) [Compound 739, ((2-(((3S,6S,9aS)-3-(3-(4-(dimethylamino)pyrimidin-5-yl)azetidine-1-carbonyl)-5-oxooctahydro-1H-pyrrolo[1,2-a]azepin-6-yl)carbamoyl)benzo [b]thiophen-5-yl)fluoromethyl) phosphonic acid], the IC50 in experiment [1] (setting [3]) is 3 to 30 µM; in experiment [2] (setting [4]) it was less than 0.1 µM.

For the molecule `Cn1ncc(C2CN(C(=O)[C@@H]3CC[C@@H]4CCC[C@H](NC(=O)c5cc6cc(C(F)P(=O)(O)O)ccc6s5)C(=O)N43)C2)c1C#N` (stereo partly drawn) [Compound 743, ((2-(((3S,6S,9aS)-3-(3-(5-cyano-1-methyl-1H-pyrazol-4-yl)azetidine-1-carbonyl)-5-oxooctahydro-1H-pyrrolo[1,2-a]azepin-6-yl)carbamoyl)benzo [b]thiophen-5-yl)fluoromethyl) phosphonic acid], the 50% inhibitory concentration (IC50) lay in the range of 3 to 30 µM in experiment [1] (setting [3]) and 1 to 10 µM in experiment [2] (setting [4]).

`CC(C)[C@@H]1CC[C@H](NC(=O)c2cc3cc(C(F)P(=O)(O)O)ccc3s2)C(=O)N2[C@H](CC[C@H]2C(=O)N2C[C@H](c3ccccc3)[C@@H](C#N)C2)C1` (single isomer, unassigned) [Compound 212]: the IC50 in experiment [1] (STAT6 (W123-T658) 250 nM, probe 5-FAM-ApYKPFQDLI-NH2 2 nM, read-out: STAT6 (FP assay IC50 class)) is not above 0.3 µM; in experiment [2] (setting [4]) it was 1 to 10 µM.

On to `N#C[C@@H]1CN(C(=O)[C@@H]2CC[C@@H]3CCCC[C@H](NC(=O)c4ccc5ccc(C(F)(F)P(=O)(O)O)cc5c4)C(=O)N32)C[C@H]1c1cc[nH]c(=O)c1` (single isomer, unassigned) [Compound 79, ((7-(((3S,6S,10aS)-3-((3S,4R or 3R,4S)-3-cyano-4-(2-oxo-1,2-dihydropyridin-4-yl)pyrrolidine-1-carbonyl)-5-oxodecahydropyrrolo [1,2-a]azocin-6-yl)carbamoyl)naphthalen-2-yl)difluoromethyl) phosphonic acid], for which the 50% inhibitory concentration (IC50) was not above 0.3 µM in experiment [1] (STAT6 250 nM, probe 5-FAM-ApYKPFQDLI-NH2 2 nM, read-out: STAT6 (FP assay IC50)) and 0.1 to 1 µM in experiment [2] (setting [6]).

As for `COc1ncncc1C1CN(C(=O)[C@@H]2CC[C@@H]3CCC[C@H](NC(=O)c4cc5cc(C(F)P(=O)(O)O)ccc5s4)C(=O)N32)C1` (stereo partly drawn) [Compound 764, (fluoro(2-(((3S,6S,9aS)-3-(3-(4-methoxypyrimidin-5-yl)azetidine-1-carbonyl)-5-oxooctahydro-1H-pyrrolo[1,2-a]azepin-6-yl)carbamoyl)benzo [b]thiophen-5-yl)methyl) phosphonic acid], the concentration for half-maximal inhibition (IC50) in experiment [1] (setting [3]) was 3 to 30 µM; in experiment [2] (setting [4]) it was 0.1 to 1 µM.

On to `O=C(N[C@H]1CCCC[C@H]2CC[C@@H](C(=O)N3CC(c4cccnc4)CC34CC4)N2C1=O)c1cc2cc(C(F)P(=O)(O)O)ccc2s1` (stereo partly drawn) [Compound 912, (fluoro(2-(((3S,6S,10aS)-5-oxo-3-(6-(pyridin-3-yl)-4-azaspiro[2.4]heptane-4-carbonyl)decahydropyrrolo[1,2-a]azocin-6-yl)carbamoyl)benzo [b]thiophen-5-yl)methyl) phosphonic acid], for which the half-inhibitory concentration (IC50) in experiment [1] (setting [3]) is not above 0.3 µM; in experiment [2] (setting [4]), 1 to 10 µM.

Turning to `CNc1ccncc1C1CN(C(=O)[C@@H]2CC[C@@H]3CCC[C@H](NC(=O)c4cc5cc(CP(=O)(O)O)ccc5s4)C(=O)N32)C1` [Compound 606, ((2-(((3S,6S,9aS)-3-(3-(4-(methylamino)pyridin-3-yl)azetidine-1-carbonyl)-5-oxooctahydro-1H-pyrrolo[1,2-a]azepin-6-yl)carbamoyl)benzo [b]thiophen-5-yl)methyl) phosphonic acid], the IC50 in experiment [1] (setting [3]) is 3 to 30 µM; in experiment [2] (setting [4]) it was less than 0.1 µM.

In the case of `O=C(N[C@H]1CCC[C@H]2CC[C@@H](C(=O)N3CC(c4cnccc4N4CCOCC4)C3)N2C1=O)c1cc2cc([C@H](F)P(=O)(O)O)ccc2s1` (single isomer, unassigned) [Compound 746], the IC50 in experiment [1] (setting [3]) was 3 to 30 µM; in experiment [2] (setting [4]), less than 0.1 µM.

As for `COc1ccncc1C1CN(C(=O)[C@@H]2CC[C@@H]3C[C@@H](C(C)C)CC[C@H](NC(=O)c4cc5cc(C(F)P(=O)(O)O)ccc5s4)C(=O)N32)C1` (stereo partly drawn) [Compound 246, (fluoro(2-(((3S,6S,9S,10aR)-9-isopropyl-3-(3-(4-methoxypyridin-3-yl)azetidine-1-carbonyl)-5-oxodecahydropyrrolo[1,2-a]azocin-6-yl)carbamoyl)benzo[b]thiophen-5-yl)methyl)phosphonic acid], the IC50 was 3 to 30 µM in experiment [1] (setting [3]) and less than 0.1 µM in experiment [2] (setting [4]).

Take `O=C(N[C@H]1CCC[C@H]2CC[C@@H](C(=O)N3CC(c4cnccc4Cl)C3)N2C1=O)c1cc2cc(CP(=O)(O)O)ccc2s1` [Compound 519, ((2-(((3S,6S,9aS)-3-(3-(4-chloropyridin-3-yl)azetidine-1-carbonyl)-5-oxooctahydro-1H-pyrrolo[1,2-a]azepin-6-yl)carbamoyl)benzo[b]thiophen-5-yl)methyl)phosphonic acid]: the IC50 in experiment [1] (setting [3]) lay within 3 to 30 µM; in experiment [2] (setting [4]) it was 1 to 10 µM.
